Data set [1] can be described thus: Tolerability in nonhuman primates, 10 daily SC injections. The data set is classed as in vivo, cynomolgus monkey. Conditions: 10 days. The protocol: Pharmacokinetic profile of SBT-272 in nonhuman primate plasma, CSF, and brain. The objective of this study was to determine the pharmacokinetic profile of SBT-272 in CSF and plasma when delivered by subcutaneous (SC) injection for 10 days to cynomolgus monkeys. SBT-272 solution was administered daily by SC injection for 10 days. The following parameters and endpoints were evaluated in this study: mortality, clinical observations, body weights, pharmacokinetic samples (CSF and plasma), and selected tissue collection. There was no mortality during the study. […] Additional details regarding the experimental protocol are provided below.
Test System. Details Regarding the Test System are Provided Below: • Species: Nonhuman primate • Strain/Breed: Cynomolgus monkey • Animal Condition: Non-naïve • Animal Procurement Method: In-house colony • Animal Supplier: Charles River Laboratories • Animal Supplier Location: 531 Boul des Prairies, Laval, QC H7V 1B7, Canada • Animal Origin: Asia • Number of Males: 3 • Age at the Initiation of Dosing: 18 to 60 months • Weight at the Initiation of Dosing: 1.4 to 5.0 kg
• Route of Administration: Subcutaneous injection into the scapular and mid-dorsal areas • Treatment Frequency: Daily • Treatment Duration: 10 days • Method: The first day of dosing is designated as Day 1. Dose formulations are allowed to warm up at ambient temperature for at least 30 minutes prior to dosing, as appropriate. The animals are temporarily restrained for dose administration and are not be sedated. The volume for each dose is administered over 1 (preferred) or 2 (as necessary) separate injections within the designated area. Injection sites are rotated daily (see FIG. 4B). If a designated subcutaneous test site is not available for a given animal on any day, then the next available test site in the rotation should be used for dosing. The injection area is marked as frequently as required to allow appropriate visualization of administration sites. Hair may be clipped or shaved if required to improve visualization of the injection sites. […]

In data set [2] the test system is models of neurodegeneration. Put plainly: In vitro effect concentration (in vitro-in vivo correlation). The data set is classed as cell-based. Particulars: FIG. 3A. From the text:
See Guatam M., Platform presentation. NEALS, 2022. […] See Keefe, et al. (2019); Gautam, et al. (2022); Guatam, et al. (2021). Gautam, et al., SBT-272 improved mitochondria structure and function and preserved upper motor neurons with TDP-43 pathology, Platform poster presentation, presented at NEALS poster session (2022); Bido, et al. (2021); Silva, et al. (2022); and Zariwala, et al., Effects of the mitochondria-targeting small molecule SBT-272 in the R6/2 transgenic mice of Huntington's Disease, Poster presented at Keystone Symposia poster Session, 2022.

The structures appear in SMILES notation.

With `Cc1cc(O)cc(C)c1C[C@H](NC(=O)[C@H](N)CCCNC(=N)N)C(=O)N[C@@H](CCCCN)c1nc(Cc2ccccc2)no1` [SBT-272, (R)-2-amino-N—((S)-1-(((S)-5-amino-1-(3-benzyl-1,2,4-oxadiazol-5-yl)pentyl)amino)-3-(4-hydroxy-2,6-dimethylphenyl)-1-oxopropan-2-yl)-5-guanidinopentanamide], in data set [1] (5 mg/kg/day SC), the “body weight differences related to administration” value is “no differences in body weights” and the mortality entry was “no mortality”. The tolerability entry in data set [1] (SC injection at 5 mg/kg/day) is on record as “well tolerated”. For the same compound, the “optimal in vitro effects, concentration” value in data set [2] lay within 10 to 100 nM.

The record behind these values is US20260373226A1, “METHODS AND COMPOSITIONS FOR THE TREATMENT OF NEURODEGENERATIVE DISEASE” (Stealth BioTherapeutics Inc., priority 2022, published 2026).
